Data set [1] relates to lipid peroxidation in rat hepatocyte. The data set is described as follows: Inhibitory action on lipid peroxidation (rat hepatocyte, TBA color formation, absorbance at 530 nm). Conditions: 37° C., 1 hour; for Inhibition ratio (at Final Concentration of Tested Compound) 10^-4 M: final concentration 10^-4 M, 100 µM; for Inhibition ratio (at Final Concentration of Tested Compound) 10^-5 M: final concentration 10^-5 M, 10 µM. The class given is biochemical. The procedure: A hepatocyte was isolated from rat according to the method of Ui et al (Hiroshi Oka and Tadao Ui: "Isolated Cells--Experimental and Application",page 91). The determination of lipid peroxidation was performed using a died hepatocyte which had been frozen at -85° C. and stored at the temperature and which was melted when the experimental was done. […] The centrifugal tube was shaken at 37° C. for 1 hour for performing a reaction, and then placed into an ice-water bath to terminate the reaction. […] The centrifugal tube was taken out of the ice-water bath and placed in a water bath (kept at 95°-98° C.). The content of the tube was heated in the bath for 1 hour for developing color-formation. After the heating was complete, the content of the tube was cooled and subjected to centrifugal separation. The inhibitory action on lipid peroxidation of the sample was determined by measuring absorbance at 530 nm. The determined inhibitory action is expressed inhibition ratio by percent (%) calculated by the following equation: [formula] In Table 3, the number of the tested compound corresponds to the identical number set forth in Tables 1 and 2 for identifying the compounds of the invention.

Data set [2] concerns acute liver disease caused by CCl4 (Wister-strain rat). The data set is described as follows: Preventive action on deviation of GOT value and GPT value in vivo using model of acute liver disease caused by CCl4. The protocol: CCl4 in olive oil (concentration: 50%) was orally administered to a Wister-strain rat (body weight: 170-180 g) fasted for 24 hrs., at a dose of 1 ml/kg, to cause acute liver disease. […] For control group, 1.0% methylcellulose (MC) was administered in place of the piperazine derivative. For normal group, a simple olive oil was administered in place of the CCl4 -containing olive oil. For the administration, the piperazine derivative was employed in the form of a dispersion in aqueous MC solution (concentration: 1.0%). At 24 hours after the administration of CCl4, the rat was abdominally sectioned under ether anesthesia. From the abrominal large vein, a blood was collected. The collected blood was subjected to centrifugal separation at 3,000 r.p.m. for 10 min to obtain its plasma. […] The results are set forth in Table 4 in terms of a ratio (%) of suppression (prevention) of GOT or GPT. In Table 4, "***" means 90-100%, "**" means 60-90%, and "*" means 30-60%. The ratio of suppression is calculated according to the following equation. [formula]

Data set [3] can be described thus: Toxicity by oral administration. The class given is in vivo. Conditions: even at 1,600 mg/kg by oral administration. The procedure: Further, it has been experimentally confirmed that all of piperazine derivatives of the invention tested for toxicity (Compound Nos. 4, 5, 22, 23, 32, 33, 38, 75 and 113 indicated in Tables 1 and 2) cause no death even at 1,600 mg/kg by oral administration.

The mark [4] stands for this setting: Rattus norvegicus, po, 24 h, read-out: ratio (%) of suppression (prevention) of GOT.
Setting [5] is: Rattus norvegicus, po, 24 h, read-out: ratio (%) of suppression (prevention) of GPT.
The mark [6] stands for this setting: rat, 30 mg/kg, 3 hour before oral CCl4, plasma GOT at 24 hours after CCl4, read-out: ratio (%) of suppression (prevention) of GOT.
Where [7] appears, read: rat, 30 mg/kg, 3 hour before oral CCl4, plasma GPT at 24 hours after CCl4, read-out: ratio (%) of suppression (prevention) of GPT.

Experimental findings from patent US5070089A, “Therapeutic agent for liver disease and piperazine derivatives” (Nippon Chemiphar Co., Ltd., priority 1988, dated 1991) are described below.

Read-outs that look alike come from different tables or passages of the source.

Consider `CSC(=S)N1CCN(Cc2ccccc2O)CC1` [Compound 4, Methyl 4-(2-hydroxybenzyl)-1-piperazinecarbodithioate], for which, in data set [1], the “Inhibition ratio (at Final Concentration of Tested Compound) 10^-4 M” value was 100%. Besides, in data set [1], the “Inhibition ratio (at Final Concentration of Tested Compound) 10^-5 M” value is 96.6%. Besides, the inhibition in vivo at 30 mg/kg in data set [2] (setting [4]) and in data set [2] (setting [5]) was 90 to 100% in each case. Moreover, in data set [3], the “death in toxicity test” value is listed as “no death”.
With `COc1ccccc1CN1CCN(C(=S)SC)CC1` [Compound 5, Methyl 4-(2-methoxybenzyl)-1-piperazinecarbodithioate], the inhibition in vivo at 30 mg/kg in data set [2] (setting [4]) and in data set [2] (setting [5]) was 90 to 100% each time. In addition, the “death in toxicity test” value in data set [3] was “no death”.
Turning to `CSC(=S)N1CCN(Cc2ccccc2N)CC1` [Compound 11, Methyl 4-(2-aminobenzyl)-1-piperazinecarbodithioate], in data set [1], the “Inhibition ratio (at Final Concentration of Tested Compound) 10^-4 M” value is reported as 98.6% and the “Inhibition ratio (at Final Concentration of Tested Compound) 10^-5 M” value worked out at 95.5%. In data set [2] (setting [6]), the inhibition in vivo at 30 mg/kg was 90 to 100%. Further, in data set [2] (setting [7]), the inhibition in vivo at 30 mg/kg was 90 to 100%.
As to `CSC(=S)N1CCN(Cc2ccccc2N(C)C)CC1` [Compound 13, Methyl 4-(2-dimethylaminobenzyl)-1-piperazinecarbodithioate], in data set [1], the “Inhibition ratio (at Final Concentration of Tested Compound) 10^-4 M” value is listed as 98.9% and the “Inhibition ratio (at Final Concentration of Tested Compound) 10^-5 M” value is recorded as 95.4%. For the same compound, the inhibition in vivo at 30 mg/kg in data set [2] (setting [6]) is 30 to 60%. Further, the inhibition in vivo at 30 mg/kg in data set [2] (setting [7]) was in the range of 30 to 60%.
As for `CSC(=S)N1CCN(Cc2cc(O)ccc2O)CC1.Cl` [Compound 16, Methyl 4-(2,5-dihydroxybenzyl)-1-piperazinecarbodithioate hydrochloride], in data set [1], the “Inhibition ratio (at Final Concentration of Tested Compound) 10^-4 M” value was determined as 73.4% and the “Inhibition ratio (at Final Concentration of Tested Compound) 10^-5 M” value was determined as 69.4%. Further, the inhibition in vivo at 30 mg/kg in data set [2] (setting [6]) lay within 90 to 100%. For the same compound, in data set [2] (setting [7]), the inhibition in vivo at 30 mg/kg was in the range of 90 to 100%.
As for `COc1cccc(CN2CCN(C(=S)SC)CC2)c1OC` [Compound 22, Methyl 4-(2,3-dimethoxybenzyl)-1-piperazinecarbodithioate], the “Inhibition ratio (at Final Concentration of Tested Compound) 10^-4 M” value in data set [1] turned out to be 100%. In addition, in data set [1], the “Inhibition ratio (at Final Concentration of Tested Compound) 10^-5 M” value is 92.0%. The inhibition in vivo at 30 mg/kg lay in the range of 90 to 100% in data set [2] (setting [4]) and 60 to 90% in data set [2] (setting [5]). Also, the “death in toxicity test” value in data set [3] is recorded as “no death”.
Turning to `COc1ccc(OC)c(CN2CCN(C(=S)SC)CC2)c1` [Compound 23, Methyl 4-(2,5-dimethoxybenzyl)-1-piperazinecarbodithioate], in data set [1], the “Inhibition ratio (at Final Concentration of Tested Compound) 10^-4 M” value is recorded as 100% and the “Inhibition ratio (at Final Concentration of Tested Compound) 10^-5 M” value is listed as 60.6%. Also, in data set [2] (setting [4]), the inhibition in vivo at 30 mg/kg was in the range of 90 to 100%. Also, in data set [2] (setting [5]), the inhibition in vivo at 30 mg/kg is 90 to 100%. Further, the “death in toxicity test” value in data set [3] is on record as “no death”.
`CSC(=S)N1CCN(Cc2ccc(O)c(O)c2O)CC1` [Compound 32, Methyl 4-(2,3,4-trihydroxybenzyl)-1-piperazinecarbodithioate]: in data set [1], the “Inhibition ratio (at Final Concentration of Tested Compound) 10^-4 M” value came out at 87.8% and the “Inhibition ratio (at Final Concentration of Tested Compound) 10^-5 M” value stood at 87.4%. For the same compound, the inhibition in vivo at 30 mg/kg in data set [2] (setting [4]) was in the range of 60 to 90%. The inhibition in vivo at 30 mg/kg in data set [2] (setting [5]) is 60 to 90%. In data set [3], the “death in toxicity test” value is “no death”.
Consider `COc1ccc(CN2CCN(C(=S)SC)CC2)c(OC)c1OC` [Compound 33, Methyl 4-(2,3,4-trimethoxybenzyl)-1-piperazinecarbodithioate], for which the inhibition in vivo at 30 mg/kg in data set [2] (setting [4]) lay within 90 to 100%; in data set [2] (setting [5]), 60 to 90%. The “death in toxicity test” value in data set [3] is reported as “no death”.
On the same counts, the results for `COc1cc(C=O)cc(CN2CCN(C(=S)SC)CC2)c1O` [Compound 38, Methyl 4-(5-formyl-2-hydroxy-3-methoxybenzyl)-1-piperazinecarbodithioate] are 60 to 90%, 60 to 90% and “no death”.
As to `CCCOC(=O)c1cc(O)c(O)c(O)c1CN1CCN(C(=S)SC)CC1` [Compound 44, Methyl 4-(6-propyloxycarbonyl-2,3,4-trihydroxybenzyl)-1-piperazinecarbodithioate], in data set [1], the “Inhibition ratio (at Final Concentration of Tested Compound) 10^-4 M” value came out at 96.6% and the “Inhibition ratio (at Final Concentration of Tested Compound) 10^-5 M” value is 96.0%. The inhibition in vivo at 30 mg/kg in data set [2] (setting [6]) lay in the range of 90 to 100%. For the same compound, the inhibition in vivo at 30 mg/kg in data set [2] (setting [7]) was 60 to 90%.
On the same counts, the results for `COc1c(O)c(C)c(CN2CCN(C(=S)SC)CC2)c(O)c1OC` [Compound 47, Methyl 4-(2,5-dihydroxy-3,4-dimethoxy-6-methylbenzyl)-1-piperazinecarbodithioate] are 100%, 56.1%, 90 to 100% and 90 to 100%.
With `COc1c(OC(C)=O)c(C)c(CN2CCN(C(=S)SC)CC2)c(OC(C)=O)c1OC` [Compound 48, Methyl 4-(2,5-diacetoxy-3,4-dimethoxy-6-methylbenzyl)-1-piperazinecarbodithioate], the “Inhibition ratio (at Final Concentration of Tested Compound) 10^-4 M” value in data set [1] is on record as 96.2%. In data set [1], the “Inhibition ratio (at Final Concentration of Tested Compound) 10^-5 M” value is 97.5%. Moreover, the inhibition in vivo at 30 mg/kg in data set [2] (setting [6]) and in data set [2] (setting [7]) was 60 to 90% in each case.
With `CSC(=S)N1CCN(CC(O)c2ccc(O)c(O)c2)CC1` (stereo not drawn) [Compound 73, Methyl 4-{2-(3,4-dihydroxyphenyl)-2-hydroxy}ethyl-1-piperazinecarbodithioate], in data set [1], the “Inhibition ratio (at Final Concentration of Tested Compound) 10^-4 M” value is 88.4% and the “Inhibition ratio (at Final Concentration of Tested Compound) 10^-5 M” value amounted to 44.5%. Also, the inhibition in vivo at 30 mg/kg in data set [2] (setting [6]) lay within 60 to 90%. Further, the inhibition in vivo at 30 mg/kg in data set [2] (setting [7]) lay within 60 to 90%.
With `COc1ccc(CC(=O)N2CCN(C(=S)SC)CC2)c(OC)c1OC` [Compound 75, Methyl 4-(2,3,4-trimethoxyphenylacetyl)-1-piperazinecarbodithioate], the inhibition in vivo at 30 mg/kg in data set [2] (setting [4]) and in data set [2] (setting [5]) was 60 to 90% in each case. In data set [3], the “death in toxicity test” value is listed as “no death”.
On to `CSC(=S)N1CCN(CC2=C(C)C(=O)C(C)=C(C)C2=O)CC1` [Compound 113, Methyl 4-(3,5,6-trimethyl-1,4-benzoquinonylmethyl)-1-piperazinecarbodithioate], for which the inhibition in vivo at 30 mg/kg lay within 90 to 100% in data set [2] (setting [4]) and 60 to 90% in data set [2] (setting [5]). For the same compound, the “death in toxicity test” value in data set [3] is “no death”.
